Assay results from US8420778B2, “Tripeptides and derivatives thereof for cosmetic application in order to improve skin structure” (DSM IP Assets B.V., priority 2003, dated 2013).

Test system: Collagen Type I Synthesis in Fibroblast Cell Cultures
Experiment: Collagen stimulation by ELISA: stimulation of collagen type I synthesis in fibroblast cell cultures
Type: cell-based
Conditions: human skin fibroblasts, 72 h incubation
Description: Type I collagen of in-vitro cultured skin fibroblasts was detected with an ELISA (Enzyme-Linked Immunosorbent Assay). The increase in the collagen production of the cells was quantified in the presence of the peptidic actives by using this method. Human skin fibroblasts were isolated from foreskin and bred in culture medium. After 72 h of incubation with the corresponding peptides (actives) the quantitative determination was performed using an antibody specific for collagen I. [table] The 1st AB (MAB1340; Chemicon) and the 2nd AB (31430; Socochim S.A.) are diluted 1/500 with AB dilution solution. The fibroblasts are incubated until confluent at a density of approx. 5000 cells per well in 96 well-plates in culture medium (37° C./5% CO2) for 3 days. The medium is replaced with test medium with three different concentrations of test substance in triplicate. The following controls are tested on each plate: [table] After incubation of the plates for further 72 hours, the precipitated collagen I is detected and quantified according to the following protocol: • discard medium and wash with 200 μl/well of PBS • fix with 100 μl/well of methanol for 15 min at RT/shaker 600 rpm • discard methanol and block with 200 μl/well of milk solution for 30 min at RT/shaker 600 rpm • discard milk solution and incubate with 100 μl/well of the 1st AB dilution for 2 h at RT/shaker 600 rpm • discard 1st AB dilution and wash 3× with 200 μl/well of washing buffer • incubate with 100 μl/well of the 2nd AB dilution for 3 h at RT/shaker 600 rpm • discard 2nd AB dilution; wash 3× with 200 μl/well of washing buffer and 1× with 100 μl/well of PBS • add 100 μl/well of substrate solution for 20 min at RT/shaker 600 rpm • stop the reaction with 50 μl/well of H2SO4 (2M) and measure at 492 nm.

Row | Substance | % Stimulation (Conc. 25 µmol/L) | % Stimulation (Conc. 50 µmol/L) | other results
1 | Elaidoyl-Lys-Phe-Lys-OH *2AcOH [Reference compound A, reference compound] |  |  | % Stimulation (Conc. 0.01 µmol/L): 23%; % Stimulation (Conc. 20.0 µmol/L): 43%
2 | Elaidoyl-Lys-Thr-Lys-OH*2TFA [Example 4] | 104% |  | 
3 | H-Lys-Thr-Lys-OH*3TFA [Example 5] |  | 35% | 
4 | H-Lys-Val-Lys-NH-Cetyl*3TFA [Example 7] |  |  | % Stimulation (Conc. 100 µmol/L): 61%
5 | H-Lys-Val-Lys-O-Octyl*3TFA [Example 8] | 31% |  | 
6 | Palm-Lys-Val-Lys-OH *2AcOH [No 4] |  | 48% | 
